The values below come from patent US3947411A, “Novel 1-aryl-2-arylalkyl-3-or-4-[4'-(substituted-alkyl)piperazino-1']butanols- 2-or-butenes-1, and methods of manufacture thereof” (Warner-Lambert Company, priority 1972, dated 1976).

Data set [1] has as its system E. coli. In words: Minimum inhibitory concentration for bacteria in presence of serum, E. coli (Table VII). It counts as cell-based. The following applies: Escherichia coli; nutrient broth + 10% serum, 37°C, 48 hours.
Data set [2] deals with A. niger. In words: Minimum inhibitory concentration for fungi in presence of serum, A. niger (Table VI). In kind it is cell-based. The following applies: Aspergillus niger; Sabouraud nutrient broth + 10% bovine serum, 28°C, 48 hours.
Data set [3] is described as follows: Solubility in water. In kind it is physicochemical. The following applies: hydrochlorides or oxalates, read-out: solubilities (in water). A digest of the protocol:
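Water solubility given for the hydrochloride salts of most compounds and for the oxalate salts of a few.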

Data set [4] relates to Escherichia coli. In words: Agar well inhibition zone test against bacteria, Escherichia coli (Table III). The following applies: quantity per well giving inhibition zone (500, 50, 5 μg tested); nutrient agar, 37°, 24 hours.
The test system of data set [5] is C. albicans. The data set can be described thus: Minimum inhibitory concentration for fungi in presence of serum, C. albicans (Table VI). It counts as cell-based. The following applies: Candida albicans; Sabouraud nutrient broth + 10% bovine serum, 28°C, 48 hours.
Data set [6] concerns Staphylococcus aureus. In words: Agar well inhibition zone test against bacteria, Staphylococcus aureus (Table III). The following applies: quantity per well giving inhibition zone (500, 50, 5 μg tested); nutrient agar, 37°, 24 hours.
The test system of data set [7] is C. albicans. The data set can be described thus: Minimum inhibitory concentration for fungi, tube dilution, C. albicans (Table IV). The following applies: Candida albicans, 48 h, read-out: Minimum Inhibitory Concentration, C. albicans.
Experimental: (§1) A tube dilution series of the respective compound in Sabouraud nutrient broth, whose individual tubes contained concentrations of 1024 μg, 512 μg, 256 μg, 128 μg, 64 μg, 32 μg, 16 μg, 8 μg, 4 μg, 2 μg, 1.1 μg and 0.5 μg/ml, was prepared and inoculated with a photometrically standardized suspension of the test organisms or the spores thereof.
The subject of data set [8] is E. coli. The data set can be described thus: Minimum inhibitory concentration for bacteria, tube dilution, E. coli (Table V). In kind it is cell-based. The following applies: Escherichia coli, 48 h, read-out: Minimum Inhibitory Concentration, E. coli.
Data set [9] relates to Aspergillus niger. The data set can be described thus: Agar well inhibition zone test against fungi, Aspergillus niger (Table II). The following applies: quantity per well giving inhibition zone (500, 50, 5 μg tested); Sabouraud agar, 28°, 48 hours.
Experimental: The efficacy of the compounds against fungi was tested as follows:
The test organisms, in this case the blastomycete Candida albicans and the mold Aspergillus niger, were inoculated onto Sabouraud agar plates by pouring a photometrically adjusted standard suspension of organisms on the plate. After inoculation, wells with a diameter of 5.0 mm were punched in the agar, and filled with 50 ul of the compound solution mentioned before. The quantity of compound applied thus amounted to 500 μg, 50 μg and 5 μg. After incubation at 28° for 48 hours, the quantity of compound was determined at which an inhibition of the organism's growth, in form of an inhibition zone around the corresponding well, was present.
In data set [10] the test system is Candida albicans. The data set can be described thus: Agar well inhibition zone test against fungi, Candida albicans (Table II). The following applies: quantity per well giving inhibition zone (500, 50, 5 μg tested); Sabouraud agar, 28°, 48 hours.
The test system of data set [11] is Staph. aureus. In words: Minimum inhibitory concentration for bacteria, tube dilution, Staph. aureus (Table V). The following applies: Staphylococcus aureus, 48 h, read-out: Minimum Inhibitory Concentration, Staph. aureus.
Experimental: A tube dilution series of the respective compound in nutrient broth whose individual tubes contained concentrations of 1024 μg, 512 μg, 256 μg, 128 μg, 64 μg, 32 μg, 1 μg, 8 μg, 4 μg, 2 μg, 1.1 μg and 0.5 μg/ml was prepared and inoculated with a photometrically standardized suspension of the test organisms.
In data set [12] the test system is A. niger. The data set can be described thus: Minimum inhibitory concentration for fungi, tube dilution, A. niger (Table IV). The following applies: Aspergillus niger, 48 h, read-out: Minimum Inhibitory Concentration, A. niger.
Experimental: as §1
Data set [13] has as its system Mycobacterium tuberculosis II 37 RV (typus humanus). The data set can be described thus: Efficacy against Mycobacteria, Tb-broth dilution series (Table I). It counts as cell-based. The following applies: 504 h, Dubos Tb-broth + 10% bovine serum, 21 days, read-out: Minimum Inhibitory Concentration.

Converted amounts (≈) assume the structure as drawn. Some results are limits rather than exact numbers.

For the compound `CNCCCCCCN1CCN(C(C)C(=Cc2ccccc2)Cc2ccccc2)CC1` (stereo not shown) [XLI, 1-phenyl-2-benzyl-3-[4'-(w-methyl-amino-n-hexyl)piperazino-1']-butene-1], the MIC in data set [1] came out at 512 µg/mL; in [2] it was 8 µg/mL; in data set [5], 128 µg/mL; in data set [7] it was 2 µg/mL (≈ 4.77 µM); in data set [8], 32 µg/mL (≈ 76.3 µM); in data set [11] it was 32 µg/mL (≈ 76.3 µM). In addition, the MIC in data set [12] was 1 µg/mL (≈ 2.38 µM). The solubility in [3] was found to be 100 mg/mL (≈ 238000 µM). Moreover, the “Inhibition Area at μg, E. coli” value in data set [4] was found to be 50 µg. The “Inhibition Area at μg, Staph. aureus” value in data set [6] came out at 50 µg. Besides, the “Inhibition Area at μg, Asp. niger” value in [9] was 5 µg. For the same compound, the “Inhibition Area at μg, Cand. albicans” value in [10] turned out to be 5 µg.

`CCCCCCCCNCCCCCCN1CCN(C(C)C(=Cc2ccccc2)Cc2ccccc2)CC1` (stereo not shown) [XL, 1-phenyl-2-benzyl-3-[4'-(w-n-octyl-amino-n-hexyl)piperazino-1']-butene-1]: the MIC in data set [1] is 1020 µg/mL; in [2], 2 µg/mL; in data set [5], 64 µg/mL; in [7], under 0.5 µg/mL; in data set [8], 32 µg/mL (≈ 61.8 µM); in [11], under 0.5 µg/mL. Besides, the MIC in data set [12] is under 0.5 µg/mL. For the same compound, in data set [3], the solubility came to 10 mg/mL (≈ 19300 µM). In addition, the “Inhibition Area at μg, E. coli” value in [4] is 5 µg. Besides, the “Inhibition Area at μg, Staph. aureus” value in data set [6] is 5 µg. In addition, in data set [9], the “Inhibition Area at μg, Asp. niger” value was 5 µg. Further, in data set [10], the “Inhibition Area at μg, Cand. albicans” value was found to be 5 µg.

Turning to `CCCCCCCC[N+](C)(C)CCN1CCN(C(C)C(=Cc2ccccc2)Cc2ccccc2)CC1` (stereo not drawn) [XLIII, Dimethyl-n-octyl-β-[4-(1'-phenyl-2'-benzylbutene-1'-yl-3')-piperazino-1]-ethyl-ammoniumbromide], the MIC in [1] was 128 µg/mL; in data set [2], 64 µg/mL; in data set [5], 128 µg/mL; in [7], under 0.5 µg/mL; in data set [8] it was 1 µg/mL; in [11], under 0.5 µg/mL. Further, the MIC in [12] is under 0.5 µg/mL. For the same compound, the solubility in [3] was under 10 mg/mL. Besides, the “Inhibition Area at μg, E. coli” value in [4] was determined as 5 µg. For the same compound, the “Inhibition Area at μg, Staph. aureus” value in data set [6] stood at 5 µg. Moreover, the “Inhibition Area at μg, Asp. niger” value in data set [9] was 5 µg. Moreover, in data set [10], the “Inhibition Area at μg, Cand. albicans” value is 5 µg.

Take `CNCCN1CCN(C(C)C(=Cc2ccccc2)Cc2ccccc2)CC1` (stereo not drawn) [XXV, 1-phenyl-2-benzyl-3-[4'-(β-methylamino-ethyl)-piperazino-1']-butene-1]: the MIC in data set [1] turned out to be 512 µg/mL; in data set [2] it was 64 µg/mL; in data set [5], 256 µg/mL; in [13], 10 µg/mL; in data set [7], 64 µg/mL (≈ 176 µM); in [8], 64 µg/mL (≈ 176 µM). Besides, the values for the MIC in [11] and in data set [12] were 64 µg/mL (≈ 176 µM) and 8 µg/mL (≈ 22 µM), respectively. The solubility in [3] came to 100 mg/mL (≈ 275000 µM). Besides, in [4], the “Inhibition Area at μg, E. coli” value came out at 50 µg. In [6], the “Inhibition Area at μg, Staph. aureus” value came to 5 µg. In addition, the “Inhibition Area at μg, Asp. niger” value in data set [9] was 5 µg. For the same compound, in data set [10], the “Inhibition Area at μg, Cand. albicans” value was 5 µg.
